Assay results: the PolyMetriX glass transition set
± gives the standard deviation of the reports.

Compound | glass transition temperature [°C]
*c1ccc2c(c1)C(=O)N(c1cccc(S(=O)(=O)c3cccc(N4C(=O)c5ccc(*)cc5C4=O)c3)c1)C2=O (repeat unit) | 260.00
*Oc1cccc(Oc2ccc(Oc3ccc4c(c3)C(=O)N(c3ccc(Oc5ccc(N6C(=O)c7ccc(*)cc7C6=O)cc5)cc3)C4=O)cc2)c1 (repeat unit) | 215.00
*c1cccc2c1C(=O)N(c1ccc(Oc3ccc(N4C(=O)c5cccc(*)c5C4=O)cc3)cc1)C2=O (repeat unit) | 306.00 ± 26
*Oc1cccc(Oc2ccc(Oc3cccc4c3C(=O)N(c3cccc(N5C(=O)c6cccc(*)c6C5=O)c3)C4=O)cc2)c1 (repeat unit) | 238.00
*Oc1c(F)c(F)c(Oc2c(F)c(F)c3c(c2F)C(=O)N(c2c(F)c(F)c(Oc4c(F)c(F)c(N5C(=O)c6c(F)c(*)c(F)c(F)c6C5=O)c(F)c4F)c(F)c2F)C3=O)c(F)c1F (repeat unit) | 300.00
*Oc1ccc2c(c1)C(=O)N(c1cccc(Oc3ccc(C(=O)c4ccc(Oc5cccc(N6C(=O)c7cccc(*)c7C6=O)c5)cc4)cc3)c1)C2=O (repeat unit) | 205.50 ± 2.1
*C(=O)c1ccc2c(c1)C(=O)N(c1ccc(S(=O)(=O)c3ccc(N4C(=O)c5ccc(*)cc5C4=O)cc3)cc1)C2=O (repeat unit) | 307.00
*c1cc(N2C(=O)c3ccc(-c4ccc5c(c4)C(=O)N(*)C5=O)cc3C2=O)ccc1OCC(F)(F)C(F)(F)C(F)(F)C(F)(F)C(F)(F)C(F)(F)F (repeat unit) | 262.00
*Oc1cccc(Sc2ccc(Oc3cccc4c3C(=O)N(c3ccc(Oc5ccc(N6C(=O)c7cccc(*)c7C6=O)cc5)cc3)C4=O)cc2)c1 (repeat unit) | 234.00
*Oc1cccc(Sc2ccc(Oc3ccc4c(c3)C(=O)N(c3ccc(Oc5ccc(N6C(=O)c7ccc(*)cc7C6=O)cc5)cc3)C4=O)cc2)c1 (repeat unit) | 212.00
*c1ccc2c(c1)C(=O)N(c1c(F)cc(Oc3ccc(C(c4ccc(Oc5cc(F)c(N6C(=O)c7ccc(C(*)(C(F)(F)F)C(F)(F)F)cc7C6=O)c(F)c5)cc4)(C(F)(F)F)C(F)(F)F)cc3)cc1F)C2=O (repeat unit) | 224.00
*Oc1cccc(Sc2ccc(Oc3cccc4c3C(=O)N(c3cccc(N5C(=O)c6cccc(*)c6C5=O)c3)C4=O)cc2)c1 (repeat unit) | 231.00
*C(=O)Oc1ccc2ccccc2c1-c1c(OC(=O)c2ccc3c(c2)C(=O)N(c2ccc(C(=O)Oc4ccc5ccccc5c4-c4c(OC(=O)c5ccc(N6C(=O)c7ccc(*)cc7C6=O)cc5)ccc5ccccc45)cc2)C3=O)ccc2ccccc12 (repeat unit) | 266.50
*Oc1cccc(S(=O)(=O)c2ccc(Oc3ccc4c(c3)C(=O)N(c3cccc(N5C(=O)c6ccc(*)cc6C5=O)c3)C4=O)cc2)c1 (repeat unit) | 265.00
*c1ccc(Cc2ccc(-n3c(=O)c4cc5c(=O)n(*)c(=O)c5cc4c3=O)c(C)c2)cc1C (repeat unit) | 274.00
*C(=O)c1ccc2c(c1)C(=O)N(c1c(CC)cc(Cc3cc(CC)c(N4C(=O)c5ccc(*)cc5C4=O)c(CC)c3Cl)c(Cl)c1CC)C2=O (repeat unit) | 300.00
*Oc1ccc2c(c1)C(=O)N(c1cccc(Oc3ccc(P(=O)(c4ccccc4)c4ccc(Oc5ccc(N6C(=O)c7ccc(*)cc7C6=O)cc5)cc4)cc3)c1)C2=O (repeat unit) | 240.00
*Oc1ccc(C(c2ccc(Oc3cccc4c3C(=O)N(c3ccc(Oc5ccc(N6C(=O)c7cccc(*)c7C6=O)cc5)cc3)C4=O)cc2)(C(F)(F)F)C(F)(F)F)cc1 (repeat unit) | 226.00
*Oc1cccc(C(C)(C)c2ccc(Oc3ccc4c(c3)C(=O)N(c3cccc(N5C(=O)c6ccc(*)cc6C5=O)c3)C4=O)cc2)c1 (repeat unit) | 215.00
*c1ccc(Oc2ccccc2N2C(=O)c3cc4c(cc3C2=O)C(=O)N(*)C4)cc1 (repeat unit) | 386.00
*C(=O)c1ccc2c(c1)C(=O)N(c1cc(N3C(=O)c4ccc(*)cc4C3=O)ccc1OCC(F)(F)C(F)(F)C(F)(F)C(F)(F)C(F)(F)C(F)(F)C(F)(F)C(F)(F)C(F)(F)C(F)(F)F)C2=O (repeat unit) | 194.00
*Oc1cccc(C(=O)c2ccc(Oc3ccc4c(c3)C(=O)N(c3ccc(Oc5ccc(N6C(=O)c7ccc(*)cc7C6=O)cc5)cc3)C4=O)cc2)c1 (repeat unit) | 210.00
*c1ccc(C(=O)c2ccccc2-n2c(=O)c3cc4c(=O)n(*)c(=O)c4cc3c2=O)cc1 (repeat unit) | 321.00

Compound | glass transition temperature [°C]
*C(=O)c1ccc2c(c1)C(=O)N(c1cccc(C(=O)c3cccc(N4C(=O)c5ccc(*)cc5C4=O)c3)c1)C2=O (repeat unit) [Polyimide] | 220 ± 130
*Oc1cccc(S(=O)(=O)c2ccc(Oc3ccc4c(c3)C(=O)N(c3ccc(Oc5cccc(Oc6ccc(N7C(=O)c8ccc(*)cc8C7=O)cc6)c5)cc3)C4=O)cc2)c1 (repeat unit) | 194.00
*c1ccc2c(c1)C(=O)N(c1ccc(OCC(F)(F)C(F)(F)C(F)(F)F)c(N3C(=O)c4ccc(C(*)(C(F)(F)F)C(F)(F)F)cc4C3=O)c1)C2=O (repeat unit) | 266.00
*c1ccc2c(c1)C(=O)N(c1ccc(-c3ccc(N4C(=O)c5ccc(C(*)(C(F)(F)F)C(F)(F)F)cc5C4=O)cc3Cl)c(Cl)c1)C2=O (repeat unit) | 336.00
*C(=O)c1ccc2c(c1)C(=O)N(c1cccc(C(=O)c3ccccc3N3C(=O)c4ccc(*)cc4C3=O)c1)C2=O (repeat unit) | 259.00
*c1cccc2c1C(=O)N(c1ccc(Cc3ccc(N4C(=O)c5cccc(*)c5C4=O)c(C)c3)cc1C)C2=O (repeat unit) | 299.50 ± 0.7
*Oc1c(F)c(F)c(Oc2c(F)c(F)c3c(c2F)C(=O)N(c2c(F)c(F)c(F)c(N4C(=O)c5c(F)c(*)c(F)c(F)c5C4=O)c2F)C3=O)c(F)c1F (repeat unit) | 309.00
*C(=O)c1ccc2c(c1)C(=O)N(c1ccc(Oc3ccccc3N3C(=O)c4ccc(*)cc4C3=O)cc1)C2=O (repeat unit) | 287.00
*Oc1cccc(S(=O)(=O)c2ccc(Oc3cccc4c3C(=O)N(c3ccc(Oc5ccc(N6C(=O)c7cccc(*)c7C6=O)cc5)cc3)C4=O)cc2)c1 (repeat unit) | 267.00
*Oc1cccc(C(C)(C)c2ccc(Oc3ccc4c(c3)C(=O)N(c3ccc(Oc5ccc(N6C(=O)c7ccc(*)cc7C6=O)cc5)cc3)C4=O)cc2)c1 (repeat unit) | 223.00
*Sc1ccc2c(c1)C(=O)N(c1ccc(Oc3ccc(Oc4ccc(N5C(=O)c6cccc(*)c6C5=O)cc4)cc3)cc1)C2=O (repeat unit) | 238.00 ± 5.7
*c1ccc2c(c1)C(=O)N(c1ccc(-c3ccc(N4C(=O)c5ccc(C(*)(C(F)(F)F)C(F)(F)F)cc5C4=O)cc3-c3cccc(C(F)(F)F)c3)c(-c3cccc(C(F)(F)F)c3)c1)C2=O (repeat unit) | 278.00
*C(=O)c1ccc2c(c1)C(=O)N(c1ccc(Cc3ccccc3N3C(=O)c4ccc(*)cc4C3=O)cc1)C2=O (repeat unit) | 290.00
*Oc1c(F)c(F)c(Oc2c(F)c(F)c3c(c2F)C(=O)N(c2c(F)c(F)c(Sc4c(F)c(F)c(N5C(=O)c6c(F)c(*)c(F)c(F)c6C5=O)c(F)c4F)c(F)c2F)C3=O)c(F)c1F (repeat unit) | 278.00
*Oc1ccc(C(C)(C)c2ccc(Cc3ccc4c(c3)C(=O)N(c3cccc(N5C(=O)c6ccc(*)cc6C5=O)c3)C4=O)cc2)cc1 (repeat unit) | 215.00
*C(=O)c1ccc2c(c1)C(=O)N(c1cccc(Oc3ccccc3N3C(=O)c4ccc(*)cc4C3=O)c1)C2=O (repeat unit) | 259.00
*c1ccc2c(c1)C(=O)N(c1ccc(N3C(=O)c4ccc(C(*)(C(F)(F)F)C(F)(F)F)cc4C3=O)cc1F)C2=O (repeat unit) | 370.00
*C(=O)c1ccc2c(c1)C(=O)N(c1cccc(Oc3cccc(N4C(=O)c5ccc(*)cc5C4=O)c3)c1)C2=O (repeat unit) | 221.00
*c1ccc2c(c1)C(=O)N(c1ccc(Oc3ccc(P(=O)(c4ccccc4)c4ccc(Oc5cccc(N6C(=O)c7ccc(C(*)(C(F)(F)F)C(F)(F)F)cc7C6=O)c5)cc4)cc3)cc1)C2=O (repeat unit) | 220.00
*Oc1cccc2c1C(=O)N(c1cccc(Oc3ccc(C(=O)c4ccc(Oc5cccc(N6C(=O)c7cccc(*)c7C6=O)c5)cc4)cc3)c1)C2=O (repeat unit) | 198.00
*Oc1cccc(S(=O)(=O)c2ccc(Oc3ccc4c(c3)C(=O)N(c3ccc(Oc5ccc(N6C(=O)c7ccc(*)cc7C6=O)cc5)cc3)C4=O)cc2)c1 (repeat unit) | 260.00
*c1ccc(P(=O)(c2ccccc2)c2ccc(N3C(=O)c4ccc(-c5ccc6c(c5)C(=O)N(*)C6=O)cc4C3=O)cc2)cc1 (repeat unit) | 371.00
